Results on seven molecules are retold here after article PMC8577775, “Small molecule allosteric inhibitors of RORγt block Th17-dependent inflammation and associated gene expression in vivo” (PLoS ONE, 2021).

In general, IC50 refers to the midpoint of a concentration-inhibition curve. A low value points to inhibition by little substance.

In data set [1] the test system is IMQ-induced skin inflammation in Balb/c mice. Description: Imiquimod (IMQ)-induced skin inflammation model. The class given is in vivo, mouse. Particulars: for ear thickness: IMQ vehicle 0.21 ± 0.03 mm. The protocol: For IMQ-induced skin inflammation, wild-type (WT) Balb/c female mice, 5–8 weeks of age, were purchased from Charles River Laboratories. All mice were housed in pathogen-free conditions at Bristol Myers Squibb (Cambridge, MA). Aldara cream containing 5% imiquimod (Patterson Veterinary Supply, Inc; Devens, MA) was applied to the ears daily (11–14 mg) for 3 days. Mice were treated twice daily (BID) on days 1–4 per os (PO) with vehicle (0.5% methylcellulose/0.25% Tween80) or RORγt inhibitors at indicated doses immediately prior to Aldara application. Ear thickness was measured using micro-calipers. Tissues were harvested on day 4, 2 hours following the last compound dose. Naïve mice are completely untreated, receiving neither control vehicle for IMQ nor Compound.
For RNA isolation & gene expression, ears are collected on day 4 in RNAlater (Qiagen) and stored at 4°C until processed. Ears were homogenized using Procellys 24 homogenizer & hard tissue homogenizing beads (Bertin Instruments), 2 cycles of 30 seconds @ 6000 rpm in RLT lysis buffer according to manufacturer’s instructions. RNA was isolated using RNAeasy Plus MiniPrep columns (Qiagen) and cDNA generated using SuperScript VILO cDNA Synthesis kit (Invitrogen). Gene expression was quantified using TaqMan Fast Master Mix & and TaqMan FAM-MGB probe sets (Applied Biosystems): Gapdh, Mm99999915_g1, Il17a, Mm00439618_m1, Il17f, Mm00521423_m1, Il22, Mm01226722_g1 & Bclxl, Mm00437783_m1. QPCR reactions were run on QuantStudio 7 instrument. Relative quantification and fold changes were calculated using ddCT values against Gapdh and normalized to control-treated animals. For PDAC xenografts, RNA was isolated from tumor sections using Qiagen RNeasy kit (cat#74106), then cDNA was prepared using 2 μg of RNA and the high capacity RNA to cDNA kit (Applied Biosystems, cat#4387406) as per manufacturer’s instructions. Biomarker expression was determined using Taqman gene expression probes (S1 Table) and Universal master mix (ThermoFisher Scientific cat#4305719) with expression levels normalized to Gapdh.
For cytokine production, ears are removed, split in half using forceps and floated, dermis side-down, in DMEM media (Gibco) and incubated at 37° C for 24 hours. Following incubation, media was removed and cytokine production assessed by Luminex assay (Bio-Rad Laboratories).

For data set [2], the system named is Bclxl expression in the thymus. Description: Bclxl expression in thymus after oral dosing (QPCR). The format is in vivo, mouse. As to conditions: 100 mg/kg PO, C57Bl/6 female mice; S5 Fig. The protocol: Supplementary file pone.0248034.s009.tif: S5 Fig RORγt inhibitors reduce Bclxl expression in thymus of rodents. C57Bl/6 female mice were dosed PO with 100 mg/kg Compound 1, 2 or 3. Thymic tissues were collected from separate cohorts at 2, 8, 16 and 24 hours post-dose (n = 3 mice/timepoint). RNA was extracted from thymic tissues and Bclxl expression measured by QPCR. […] Time zero (‘0’) used as normalization timepoint and set to 1.0 RQ and mean set at 100% for % inhibition calculation. One-way ANOVA with Bonferroni correction for multiple comparisons used for statistical significance calculations. (TIF) Click here for additional data file.

In data set [3] the test system is MOG35-55-induced EAE in C57BL/6 mice. Description: Experimental autoimmune encephalomyelitis (EAE) model. The format is in vivo, mouse. Particulars: 3 mg/kg QD. The protocol:
EAE studies were conducted at Hooke Laboratories. WT female C57BL/6 mice (Taconic Labs) 9 weeks of age were inoculated on day 0 with MOG35-55 peptide (Hooke Kit™ MOG35-55/CFA Emulsion PTX) (EK-2110, Hooke Laboratories, Lawrence MA) followed by intraperitoneal (IP) injections of pertussis toxin at 2 and 24 hours. Mice were treated twice daily (BID, starting at day 1) per os (PO) with vehicle (0.5% MC/0.25% Tween80) or RORγt inhibitors at indicated doses. FTY720 (Gilenya) was dosed once daily (QD) at 3 mg/kg starting at day 1. EAE clinical scores were evaluated daily and scored from 0–5 according to Hooke Lab EAE scoring guidelines http://hookelabs.com/services/cro/eae/MouseEAEscoring.html. Mean clinical scores & body weight loss were assessed and statistical significance calculated by Wilcoxon’s non-parametric or 2-tailed Student’s t-test, respectively. All studies performed were approved in accordance with the Institutional Animal Care and Use Committee of Bristol Myers Squibb and complied according to Bristol Myers Squibb guidelines.

For another data set, the system named is psoriasis patients. Also noted: method as in PMID 29936103. Particulars: cited from earlier work.
In the next data set the test system is PDAC PDO model T020P. In words: In vitro organoid growth assay (CellTiter-Glo 3D), T020P. The format is cell-based, human. As to conditions: Homo sapiens, 72 h; treated 3 days post-plating; T020P. The protocol: (§1) Patient derived organoids were established as previously described. Briefly, PDX tumor chunks were minced then enzymatically digested into single cells by using a tumor dissociation Kit (Miltenyi, Cat# 130-095-929). Mouse and human cells were separated through magnetic separation, and isolated tumor cells were cultured on Matrigel-coated dishes. […]
(§2) Organoids were isolated and dissociated as described above. Cell numbers were counted by trypan blue exclusion and 5000 cells per well were plated on the Matrigel coated and pre-warmed 96-well plates. […] 100 μl of CellTiter-Glo® 3D reagent (Promega cat# G9682) was added to each well after desired time points and luminescence signal measured after 30 minutes.
(§3) Supplementary file pone.0248034.s010.tif: S6 Fig Schematic of Patient-derived organoids (PDO) growth & formation assays. […] After the indicated treatment schedule organoid growth or formation was assessed by CTG assay. […]
For orientation: ATP-based viability assays read luminescence as a measure of living cells.

For data set [4], the system named is PDAC PDO model T031P. Description: In vitro organoid growth assay (CellTiter-Glo 3D), T031P. The format is cell-based, human. Particulars: Homo sapiens, 72 h, treated 3 days post-plating. How it is done: as §1, §2, §3
Data set [5] concerns PDAC PDO model T031P. In words: In vitro organoid formation assay (CellTiter-Glo 3D). The format is cell-based. As to conditions: Homo sapiens, PDO model not named in the sentence (Fig 8B: T020P and T031P). The protocol:
Patient derived organoids were established as previously described. Briefly, PDX tumor chunks were minced then enzymatically digested into single cells by using a tumor dissociation Kit (Miltenyi, Cat# 130-095-929). Mouse and human cells were separated through magnetic separation, and isolated tumor cells were cultured on Matrigel-coated dishes. Organoid cultures were maintained by growing on Matrigel in human complete maintenance media: Advanced DMEM/F12 media (Life Technology, Cat# 12634028), 10 mM HEPES (Life Technology, Cat# 15630–080), 1X Glutamax (Life Technology, Cat# 35050–061), 1X Antibiotic-Antimycotic (Life Technology, Cat# 15240–062), 10 mM Nicotinamide (Sigma-Aldrich, Cat# N0636-500G), 250 ng/mL R-Spondin-1 (Peprotech, Cat# 120–38), 100 ng/mL Noggin (Peprotech, Cat# 120-10C), 50 ng/mL EGF (Peprotech, Cat# AF-100-15), 100 ng/mL FGF10 (Peprotech, Cat# 100–26), […] (Sigma-Aldrich, Cat# G9020), 500 nM A83-01 (Sigma, Cat# SML0788), 20 μM Y-27632 (LC Laboratories, Cat# Y-5301), 1X B27 (Life Technology, Cat# 12587010), 10 ng/mL Wnt3a (R&D Systems, Cat# 5036-WN-010), 0.1% Methylcelluose (R&D Systems, Cat# HSC001) and Plasmocin (Invivogen, Cat# Ant-mpp) and were passaged every 10–14 days. Organoids were isolated from Matrigel (Corning, Cat# 08-774-406) in a cell recovery solution (Corning, Cat# CB-40253). Spheroid clusters were then dissociated into a single cell suspension with TrypLE (Gibco, Cat# 12605). […]
as §2, §3

The subject of data set [6] is human and mouse xenograft tumor growth. Also noted: method as in PMID 30955884. As to conditions: modulation of RORγt activity; cited from earlier work.
Data set [7] concerns plaque psoriasis patients. As to conditions: cited from earlier work.
Data set [8] relates to KP/C pancreatic tumors in C57Bl/6 mice. Description: In vivo tumor growth suppression, KP/C mouse model. As to conditions: single agent vs vehicle; 28 days of dosing.
Experimental: Pancreatic tumor chunks from KP/C mice [20] on C57Bl/6 background were inoculated subcutaneously in the flank of syngeneic mice. […] Tumor volumes and body weight were measured twice each week.
To test whether inhibition of RORγt can lead to tumor growth inhibition we utilized the Kras^G12D/+/Trp53^null/Pdx1-cre (KP/C) mouse model of pancreatic cancer [20]. C57Bl/6 mice were inoculated in the flank with KP/C tumor chunks and enrolled in the study when the average tumor volume reached 200 mm^3. […] To evaluate target engagement, we examined changes in expression of a subset of potential RORγt target genes in tumor samples.

As to `O=C(O)[C@@H]1CCN(c2nn(C(=O)c3c(Cl)cccc3C(F)(F)F)c3cccc(F)c23)C[C@H]1O` [Compound 1], the ear thickness in [1] (day 4, 45 mg/kg PO) stood at 0.17 ± 0.02 mm; in data set [1] (day 4, 75 mg/kg PO) it was 0.16 ± 0.008 mm. In addition, in data set [1] (day 4, all dose levels tested (30, 45, 75 mg/kg PO)), the “Th17-cytokine gene expression (Il17a, Il17f, Il22) in ear skin” value was “reduced Th17-cytokine gene expression at all dose levels tested”. In addition, the “IMQ-induced IL-17A cytokine production in ear tissues” value in data set [1] (ear tissue floats cultured 24 hours ex vivo, Luminex) was “reduced IMQ-induced IL-17A cytokine production”. Moreover, the “Bclxl expression in the thymus” value in data set [2] is “modulation of Bclxl expression in the thymus”.
Turning to `O=C(O)[C@@H]1CCC(c2nn(C(=O)c3c(Cl)cccc3C3CC3)c3cccc(F)c23)=C[C@H]1O` [Compound 2], the “Th17-dependent gene expression and inflammation” value in data set [1] (oral administration, S4 Fig) is “inhibition of Th17-dependent gene expression and inflammation”. Further, in data set [2], the “Bclxl expression in the thymus” value was “modulation of Bclxl expression in the thymus”.
For `CCCCCCCCc1ccc(CCC(N)(CO)CO)cc1` [FTY720, reference compound], in [3] (vehicle day 12), the disease onset came to 20 days. In addition, in data set [3] (vehicle peak 3.08 ± 0.28), the “EAE clinical score (0-5)” value is given as 0.54 ± 0.234.
For the molecule `CCOc1cc([C@@H](CS(C)(=O)=O)N2C(=O)c3cccc(NC(C)=O)c3C2=O)ccc1OC` [Otezla], in the data set on psoriasis patients (Week 4), the “reduction of production of IL-17A, IL-17F, IL-22 and TNFα” value was 40–50%. For the same molecule, the PASI-75 response rate result with psoriasis patients (Week 16) is listed as “approximately 30%”.
As to `OC(c1ccc(-c2ccc(CN3CCN(Cc4ccncc4)CC3)cc2)c(F)c1)(C(F)(F)F)C(F)(F)F` [SR2211, reference compound], the IC50 with PDAC PDO model T020P is roughly 3 µM; in the data set with PDAC PDO model T031P [4] it was roughly 3 µM; with PDAC PDO model T031P [5] it was roughly 1 µM. Besides, the “human and mouse xenograft tumor growth” value in data set [6] is given as “sufficient to inhibit”.
For the molecule `CCS(=O)(=O)c1ccc(CNC(=O)c2cnc3c(c2)CN(C[C@H]2CC[C@H](C(F)(F)F)CC2)[C@H]3C(C)C)nc1` [VTP-43742], the PASI-75 response rate in data set [7] (Week 4) is listed as 25–30%. Further, the “reduction in IL-17A and IL-17F levels in plasma” value in data set [7] is reported as 50–75%.
As for `N.N.[Cl][Pt][Cl]` [cisplatin, reference compound], the tumor volume entry in [8] was “significantly reduced”.
